Data from patent US11944605B2, “Rapamycin analogs and uses thereof” (Janssen Pharmaceutica NV, priority 2018, dated 2024).
Converted amounts (≈) assume the structure as drawn. “Also recorded” adds a separate entry of the source. Where two headings read alike, the source gives them in different places.

Legend:
[1] = tested on: mTORC1 pathway (pS6K1 T389) in PC3 cells; assay: Western blot, mTORC1 pathway (pS6K1) in PC3 cells; assay type: cell-based; settings: PC3 cells
In short: (§1)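 Triton lysates analysed by Western blot for pS6K1 and pAkt, detected with IRDye 800 anti-rabbit secondary on a Li-Cor imager.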

[2] = tested on: mTORC1 pathway in wild-type MEF cells; assay: Western blot, mTORC1 pathway in wild-type MEF cells; assay type: cell-based, mouse
Procedure: (§2) The methods employed were substantially similar to those described above. Compounds were evaluated in PC3 cells, Jurkat cells, wild-type mouse embryotic fibroblast (MEF) cells, tuberous sclerosis 2 (TSC2) negative (TSC −/−) MEF cells, and tuberous sclerosis 2 (TSC2) positive (TSC +/+) MEF cells. Cells were incubated with compounds of the present invention for various time periods (e.g., 5 minutes, 15 minutes, 30 minutes, 90 minutes, 24 hours, or 48 hours), and evaluated according to known methodologies, such as those herein described.

[3] = tested on: mTORC1 pathway in tuberous sclerosis (TSC2) negative (TSC−/−) MEF cells; assay: Western blot, mTORC1 pathway in TSC−/− MEF cells; assay type: cell-based, mouse
Procedure: as §2

[4] = tested on: 4E-BP1 phosphorylation in TSC+/+ MEF cells; assay: Western blot, 4E-BP1 phosphorylation in TSC+/+ MEF cells; assay type: cell-based, mouse; settings: 24 hours
Procedure: as §2

[5] = tested on: mTORC2 pathway (Akt phosphorylation) in PC3 cells; assay: Western blot, mTORC2 pathway (pAkt) in PC3 cells; assay type: cell-based; settings: 24 hours
In short: as §1

[6] = tested on: 4E-BP1 phosphorylation in PC3 cells; assay: Western blot, 4E-BP1 phosphorylation in PC3 cells; assay type: cell-based; settings: 24 hours
[7] = tested on: mTORC1 pathway in tuberous sclerosis 2 (TSC2) positive (TSC+/+) MEF cells; assay: Western blot, mTORC1 pathway in TSC+/+ MEF cells; assay type: cell-based, mouse
Procedure: as §2

[8] = tested on: mTORC1 pathway in Jurkat cells; assay: Western blot, mTORC1 pathway in Jurkat cells; assay type: cell-based; settings: 24 hrs
Procedure: as §2

[9] = tested on: IFN-γ production; assay: IFN-γ production in allogenic mixed lymphocyte reaction; assay type: cell-based; settings: for IC50: read-out: IFN-γ Inhibition IC50s
Procedure: Assessment of Effect on IFN-γ Production in Allogenic Mixed Lymphocyte Reaction
The effect of rapamycin, everolimus, I-29, and I-117 on IFN-y production was evaluated in an allogenic mixed lymphocyte reaction (E.g., Eleftheriadis, T. et al., Int. J. Mol. Med., 37(5): 1412-20 (2016) https://doi.org/10.3892/ijmm.2016.2547).

[10] = Solubility in 100 mM phosphate buffer (pH 7.4); assay type: physicochemical; settings: pH 7.4, aqueous buffer
Text: The compound numbers correspond to the compound numbers in Table 1.

[11] = tested on: mTORC2 (Akt phosphorylation) in TSC+/+ MEF cells; assay: Western blot, mTORC2 pathway (pAkt) in TSC+/+ MEF cells; assay type: cell-based, mouse
Procedure: as §2

[12] = tested on: mTORC1 over mTORC2; assay: mTORC1 selectivity over mTORC2 at 24 hrs (Western blot based pS6K1 and pAKT assay); assay type: cell-based; settings: 24 hrs
[13] = tested on: pAKT (p-Akt 1/2/3 (Ser473)) in MCF-7 cells; assay: AlphaLISA Ultra pAKT Assay; assay type: cell-based; settings: Homo sapiens, 1.5 h; MCF7 cells, 90 min
[14] = tested on: pS6K1 (p-p70 S6 Kinase (Thr389)) in MCF-7 cells; assay: AlphaLISA Ultra pS6K1 Assay; assay type: cell-based; settings: Homo sapiens, 1.5 h; MCF7 cells, 90 min
In short: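 MCF-7 cells were seeded for 20–24 h, refed with fresh medium for 2 h, then treated with compound for 90 min at 0.5% final DMSO. Lysates were frozen at −80 °C, thawed and assayed by AlphaLISA with acceptor then donor beads, 2 h each.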

[15] = Pharmacokinetic properties in C57Bl/6 mice; assay type: in vivo; settings: mouse, plasma; for half-life: read-out: Terminal T1/2 (converted)
Procedure: Pharmacokinetic Properties
The pharmacokinetic properties of compounds of the present invention were evaluated in C57Bl/6 mice and compared with rapamycin. Animals were fasted overnight prior to administration of I-29 or rapamycin (1 mg/kg IV, 10 mg/kg PO, or 2 mg/kg IP). Animals were bled at time intervals for up to 48 hours following administration of compounds. Whole blood from each mouse was indivisually collected in polypropylene tubes and immediately centrifuged. Alloquates of the separated plasma were promptly prepared for HPCL analysis.

[16] = tested on: mTORC2 (Akt phosphorylation) in wild-type MEF cells; assay: Western blot, mTORC2 pathway (pAkt) in wild-type MEF cells; assay type: cell-based, mouse; settings: 24 hours
Procedure: as §2

Row | Structure (SMILES) | inhibition of the mTORC1 pathway ([1]; 24 hours) | inhibition of the mTORC1 pathway ([2]; 24 hours) | inhibition of the mTORC1 pathway ([3]; 24 hours) | inhibition of 4E-BP1 phosphorylation [4] | inhibition of mTORC2 (Akt phosphorylation) [5] | inhibition of 4E-BP1 phosphorylation [6] | inhibition of the mTORC1 pathway ([7]; 90 minutes) | inhibition of the mTORC1 pathway ([7]; 24 hours) | IC50 [9] | inhibition of mTORC2 (Akt phosphorylation) ([11]; 24 hours) | mTORC1 selective @ 24 hrs [12] | IC50 [14] | inhibition of mTORC2 (Akt phosphorylation) [16] | also measured
1 | CO[C@H]1C[C@@H]2CC[C@@H](C)[C@@](O)(O2)C(=O)C(=O)N2CCCC[C@H]2C(=O)O[C@H]([C@H](C)C[C@@H]2CC[C@@H](OCCO)[C@H](OC)C2)CC(=O)[C@H](C)/C=C(\C)[C@@H](O)[C@@H](OC)C(=O)[C@H](C)C[C@H](C)/C=C/C=C/C=C/1C [Everolimus, everolimus, reference compound] | strong inhibition | strong inhibition | strong inhibition | no inhibition | dose dependent inhibition | no inhibition | strong inhibition | strong inhibition | 15.2 nM | – | – | – | – | inhibition of the mTORC1 pathway ([1]; 90 minutes): strong inhibition; inhibition of the mTORC1 pathway ([2]; 90 minutes): strong inhibition; inhibition of the mTORC1 pathway ([3]; 90 minutes): strong inhibition; inhibition of the mTORC1 pathway [8]: strong inhibition; inhibition of IFN-γ production [9]: significantly inhibited
2 | COCCOCCOC1C[C@@H]2CC[C@@H](C)[C@@](O)(O2)C(=O)C(=O)N2CCCC[C@H]2C(=O)O[C@H]([C@H](C)C[C@@H]2CC[C@@H](OCCO)[C@H](OC)C2)CC(=O)[C@H](C)/C=C(\C)[C@@H](O)[C@@H](OC)C(=O)[C@H](C)C[C@H](C)/C=C/C=C/C=C/1C (stereo partly shown) [I-2] | strong inhibition | – | strong inhibition | – | do not inhibit | no inhibition | – | moderate concentration dependent inhibition | – | do not inhibit | YES | 0.1 to 1 nM | – | solubility [10]: 30 to 60 µM (≈ 31.4 to 62.8 µg/mL); IC50 [13]: ≥ 100 nM
3 | CO[C@@H]1C[C@H](C[C@@H](C)[C@@H]2CC(=O)[C@H](C)/C=C(\C)[C@@H](O)[C@@H](OC)C(=O)[C@H](C)C[C@H](C)/C=C/C=C/C=C(\C)[C@@H](OCCOCCOCCO)C[C@@H]3CC[C@@H](C)[C@@](O)(O3)C(=O)C(=O)N3CCCC[C@H]3C(=O)O2)CC[C@H]1O [I-29] | – | – | – | – | – | – | – | – | > 3000 nM | – | – | – | – | AUC(0-inf) ([15]; 1 mg/kg IV): 18400 ng·h/mL; AUC(0-t) ([15]; 1 mg/kg IV): 17600 ng·h/mL; MRT inf ([15]; 1 mg/kg IV): 15.9 h; clearance ([15]; 1 mg/kg IV): 0.9 mL/min/kg; half-life ([15]; 1 mg/kg IV): 14.7 h; Vd ([15]; 1 mg/kg IV, read-out: Vss): 0.863 L/kg; AUC(0-inf) ([15]; 2 mg/kg IP): 16900 ng·h/mL; AUC(0-t) ([15]; 2 mg/kg IP): 16600 ng·h/mL; Cmax ([15]; 2 mg/kg IP): 2590 ng/mL; Tmax ([15]; 2 mg/kg IP): 0.25 h; half-life ([15]; 2 mg/kg IP): 12.6 h; AUC(0-inf) ([15]; 10 mg/kg PO): 31700 ng·h/mL; AUC(0-t) ([15]; 10 mg/kg PO): 31200 ng·h/mL; Cmax ([15]; 10 mg/kg PO): 3290 ng/mL; Tmax ([15]; 10 mg/kg PO): 0.25 h; half-life ([15]; 10 mg/kg PO): 11 h
4 | COCCOCCO[C@H]1C[C@@H]2CC[C@@H](C)[C@@](O)(O2)C(=O)C(=O)N2CCCC[C@H]2C(=O)O[C@H]([C@H](C)C[C@@H]2CC[C@@H](OCCO)[C@H](OC)C2)CC(=O)[C@H](C)/C=C(\C)[C@@H](O)[C@@H](OC)C(=O)[C@H](C)C[C@H](C)/C=C/C=C/C=C/1C [I-105, (22E,24E,26E,27E,35R,36S,37R,38R,40S,42S,44S,45S,46R,47R,56R)-46, 56-dihydroxy-45-[(1R)-2-[(1S,3R, 4R)-4-(2-hydroxyethoxy)-3-methoxy-cyclohexyl]-1-methyl-ethyl]-47-methoxy-44-[2-(2-methoxyethoxy)ethoxy]-35,36,37,38,48,49-hexamethyl-66, 67-dioxa-57-azatricyclohexatriaconta-22,24,26(48),27(49)-tetraene-50, 51,52,53,54-pentone] | – | moderate inhibition; also recorded: strong inhibition | – | no inhibition | – | – | strong inhibition | strong inhibition | – | do not inhibit | YES | < 0.1 nM | do not inhibit | inhibition of mTORC2 (Akt phosphorylation) ([11]; 90 minutes): does not inhibit
5 | CO[C@@H]1C[C@H](C[C@@H](C)[C@@H]2CC(=O)[C@H](C)/C=C(\C)[C@@H](O)[C@@H](OC)C(=O)[C@H](C)C[C@H](C)/C=C/C=C/C=C(\C)[C@@H](OCCOCCOCCOCCO)C[C@@H]3CC[C@@H](C)[C@@](O)(O3)C(=O)C(=O)N3CCCC[C@H]3C(=O)O2)CC[C@H]1OCCO [I-115, (21E,23E,25E,26E,38R,39S,40R,41R,43S,45S,47S,48S,49R,50R,59R)-49, 59-dihydroxy-47-[2-[2-[2-(2-hydroxyethoxy)ethoxy]ethoxy]ethoxy]-48-[(1R)-2-[(1S,3R, 4R)-4-(2-hydroxyethoxy)-3-methoxy-cyclohexyl]-1-methyl-ethyl]-50-methoxy-38,39,40,41,51,52-hexamethyl-70, 71-dioxa-60-azatricyclohexatriaconta-21,23,25(51),26(52)-tetraene-53, 54,55,56,57-pentone] | strong inhibition | moderate concentration dependent inhibition | – | – | does not inhibit | – | – | moderate concentration dependent inhibition | – | does not inhibit | YES | 0.1 to 1 nM | does not inhibit | –
